Reference: article PMC5513037, “Examining the influence of specificity ligands and ATP-competitive ligands on the overall effectiveness of bivalent kinase inhibitors” (Proteome Science, 2017)

How the values were obtained:
Experiment in all cases: KAM-matrix competition in K562 lysate;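 on 0.001 uM KAM: median log10 fold change of treatment over DMSO control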;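 on 0.01 uM KAM: median log10 fold change of treatment over DMSO control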;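 on 0.1 uM KAM: median log10 fold change of treatment over DMSO control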;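 on 1 uM KAM: median log10 fold change of treatment over DMSO control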;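 on 10 uM KAM: median log10 fold change of treatment over DMSO control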
Type in all cases: binding
PRKDC = biological target: T1, PRKDC (Homo sapiens, UniProt P78527);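 on 0.001 uM KAM: median log10 fold change of treatment over DMSO control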;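 on 0.01 uM KAM: median log10 fold change of treatment over DMSO control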;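 on 0.1 uM KAM: median log10 fold change of treatment over DMSO control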;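 on 1 uM KAM: median log10 fold change of treatment over DMSO control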;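 on 10 uM KAM: median log10 fold change of treatment over DMSO control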
T1 construct: endogenous in cells; host or cells: K562
Method: (§1) Supplement 12953_2017_125_MOESM1_ESM.zip/MS_Supp Info.xlsx, sheet "KAM" | column: 10 uM KAM; 1 uM KAM; 0.1 uM KAM; 0.01 uM KAM; 0.001 uM KAM; RB50

TGFBR1 = biological target: T2, TGFBR1 (Homo sapiens, UniProt P36897)
T2 construct: endogenous in cells; host or cells: K562
T2 sequence (P36897 34-503): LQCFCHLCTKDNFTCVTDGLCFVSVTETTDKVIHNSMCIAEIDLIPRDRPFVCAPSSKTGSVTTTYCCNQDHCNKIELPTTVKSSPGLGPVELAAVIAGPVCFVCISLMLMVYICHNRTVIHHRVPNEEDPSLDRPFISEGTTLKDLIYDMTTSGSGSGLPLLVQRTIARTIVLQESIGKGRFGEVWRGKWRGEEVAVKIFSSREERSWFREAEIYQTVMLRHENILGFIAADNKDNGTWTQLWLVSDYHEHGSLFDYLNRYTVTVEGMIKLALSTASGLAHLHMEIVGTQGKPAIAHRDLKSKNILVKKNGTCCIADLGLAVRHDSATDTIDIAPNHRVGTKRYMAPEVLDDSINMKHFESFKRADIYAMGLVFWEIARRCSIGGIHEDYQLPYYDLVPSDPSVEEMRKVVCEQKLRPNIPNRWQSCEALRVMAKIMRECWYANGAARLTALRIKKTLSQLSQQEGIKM
Method: as §1

STK16 = biological target: T3, STK16 (Homo sapiens, UniProt O75716)
T3 construct: K562 cell pellets were thawed on ice and resuspended in cold Lysis buffer; endogenous in cells; host or cells: K562
T3 sequence (O75716 whole entry): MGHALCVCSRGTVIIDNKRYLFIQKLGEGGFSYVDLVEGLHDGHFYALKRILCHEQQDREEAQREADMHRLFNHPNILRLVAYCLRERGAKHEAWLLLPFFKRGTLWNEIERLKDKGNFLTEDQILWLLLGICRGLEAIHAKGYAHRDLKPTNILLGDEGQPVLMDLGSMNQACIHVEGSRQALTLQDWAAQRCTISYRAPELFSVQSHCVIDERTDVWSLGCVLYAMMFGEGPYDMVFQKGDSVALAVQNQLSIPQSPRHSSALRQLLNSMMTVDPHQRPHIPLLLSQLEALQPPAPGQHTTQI
Method: as §1

BMPR1A = biological target: T4, BMPR1A (Homo sapiens, UniProt P36894)
T4 construct: endogenous in cells; host or cells: K562
T4 sequence (P36894 24-532): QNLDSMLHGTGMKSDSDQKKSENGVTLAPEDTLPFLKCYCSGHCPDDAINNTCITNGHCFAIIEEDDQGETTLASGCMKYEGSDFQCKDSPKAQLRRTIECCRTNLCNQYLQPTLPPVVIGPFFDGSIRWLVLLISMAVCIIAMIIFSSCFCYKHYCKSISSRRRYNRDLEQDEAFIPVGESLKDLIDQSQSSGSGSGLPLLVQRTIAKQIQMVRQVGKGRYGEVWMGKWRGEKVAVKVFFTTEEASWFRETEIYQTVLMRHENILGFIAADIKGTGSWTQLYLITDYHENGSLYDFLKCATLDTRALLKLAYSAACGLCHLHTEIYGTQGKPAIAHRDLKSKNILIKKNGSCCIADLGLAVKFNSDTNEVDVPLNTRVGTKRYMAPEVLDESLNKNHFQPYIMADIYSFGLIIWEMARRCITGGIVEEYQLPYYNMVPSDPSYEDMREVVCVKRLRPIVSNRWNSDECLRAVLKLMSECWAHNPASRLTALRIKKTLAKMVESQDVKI
Method: as §1

STK17B = biological target: T5, STK17B (Homo sapiens, UniProt O94768)
T5 construct: endogenous in cells; host or cells: K562 cells (lysate)
T5 sequence (O94768 1-372): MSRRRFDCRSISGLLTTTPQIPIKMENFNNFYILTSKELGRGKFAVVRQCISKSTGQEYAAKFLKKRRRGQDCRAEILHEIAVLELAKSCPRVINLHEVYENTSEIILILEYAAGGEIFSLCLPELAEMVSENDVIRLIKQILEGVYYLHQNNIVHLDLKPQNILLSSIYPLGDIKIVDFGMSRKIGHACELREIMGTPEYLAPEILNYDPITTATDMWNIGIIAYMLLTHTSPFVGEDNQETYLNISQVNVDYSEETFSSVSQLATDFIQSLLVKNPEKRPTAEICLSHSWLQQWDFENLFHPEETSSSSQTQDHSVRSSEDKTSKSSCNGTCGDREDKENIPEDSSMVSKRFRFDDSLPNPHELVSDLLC
Method: as §1

SMG1 = biological target: T6, SMG1 (Homo sapiens, UniProt Q96Q15);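 on 0.001 uM KAM: median log10 fold change of treatment over DMSO control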;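 on 0.01 uM KAM: median log10 fold change of treatment over DMSO control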;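 on 0.1 uM KAM: median log10 fold change of treatment over DMSO control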;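 on 1 uM KAM: median log10 fold change of treatment over DMSO control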;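 on 10 uM KAM: median log10 fold change of treatment over DMSO control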
T6 construct: endogenous in cells; host or cells: K562
Method: as §1

HIPK1 = biological target: T7, HIPK1 (Homo sapiens, UniProt Q86Z02)
T7 construct: endogenous in cells; host or cells: K562
T7 sequence (Q86Z02 whole entry): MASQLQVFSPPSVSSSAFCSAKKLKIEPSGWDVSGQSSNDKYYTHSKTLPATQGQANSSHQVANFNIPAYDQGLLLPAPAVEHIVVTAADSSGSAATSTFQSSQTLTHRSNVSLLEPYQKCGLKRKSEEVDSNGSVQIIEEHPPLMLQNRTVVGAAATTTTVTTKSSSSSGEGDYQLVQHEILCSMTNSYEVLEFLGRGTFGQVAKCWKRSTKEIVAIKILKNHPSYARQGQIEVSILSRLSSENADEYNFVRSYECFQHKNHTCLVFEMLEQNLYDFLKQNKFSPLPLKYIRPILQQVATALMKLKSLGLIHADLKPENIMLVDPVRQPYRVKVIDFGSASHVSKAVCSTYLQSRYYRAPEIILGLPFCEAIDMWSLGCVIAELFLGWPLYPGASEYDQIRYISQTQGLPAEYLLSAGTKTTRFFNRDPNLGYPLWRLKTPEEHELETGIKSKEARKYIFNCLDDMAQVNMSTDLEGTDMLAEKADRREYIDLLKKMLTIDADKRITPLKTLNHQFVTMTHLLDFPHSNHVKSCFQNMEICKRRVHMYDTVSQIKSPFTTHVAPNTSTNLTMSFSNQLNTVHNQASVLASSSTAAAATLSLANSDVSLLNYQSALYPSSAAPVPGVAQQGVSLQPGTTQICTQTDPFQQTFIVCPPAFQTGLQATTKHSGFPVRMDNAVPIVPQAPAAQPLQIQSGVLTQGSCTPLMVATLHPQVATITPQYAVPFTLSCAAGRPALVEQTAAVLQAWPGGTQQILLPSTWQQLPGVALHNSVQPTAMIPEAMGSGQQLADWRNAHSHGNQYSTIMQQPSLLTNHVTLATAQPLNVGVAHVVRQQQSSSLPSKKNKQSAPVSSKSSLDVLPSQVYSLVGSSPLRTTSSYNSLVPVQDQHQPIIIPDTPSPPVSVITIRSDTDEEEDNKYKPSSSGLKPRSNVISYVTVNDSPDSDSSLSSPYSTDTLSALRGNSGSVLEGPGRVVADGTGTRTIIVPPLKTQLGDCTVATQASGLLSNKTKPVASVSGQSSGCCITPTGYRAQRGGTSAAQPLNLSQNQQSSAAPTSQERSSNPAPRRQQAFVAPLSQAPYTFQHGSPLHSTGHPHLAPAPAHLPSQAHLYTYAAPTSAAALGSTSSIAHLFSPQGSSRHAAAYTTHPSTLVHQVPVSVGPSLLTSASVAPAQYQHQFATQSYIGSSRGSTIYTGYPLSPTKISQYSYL
Method: as §1

ZAK = biological target: T8, ZAK (Homo sapiens, UniProt Q9NYL2)
T8 construct: endogenous in cells; host or cells: K562 cell lysate
T8 sequence (Q9NYL2 whole entry): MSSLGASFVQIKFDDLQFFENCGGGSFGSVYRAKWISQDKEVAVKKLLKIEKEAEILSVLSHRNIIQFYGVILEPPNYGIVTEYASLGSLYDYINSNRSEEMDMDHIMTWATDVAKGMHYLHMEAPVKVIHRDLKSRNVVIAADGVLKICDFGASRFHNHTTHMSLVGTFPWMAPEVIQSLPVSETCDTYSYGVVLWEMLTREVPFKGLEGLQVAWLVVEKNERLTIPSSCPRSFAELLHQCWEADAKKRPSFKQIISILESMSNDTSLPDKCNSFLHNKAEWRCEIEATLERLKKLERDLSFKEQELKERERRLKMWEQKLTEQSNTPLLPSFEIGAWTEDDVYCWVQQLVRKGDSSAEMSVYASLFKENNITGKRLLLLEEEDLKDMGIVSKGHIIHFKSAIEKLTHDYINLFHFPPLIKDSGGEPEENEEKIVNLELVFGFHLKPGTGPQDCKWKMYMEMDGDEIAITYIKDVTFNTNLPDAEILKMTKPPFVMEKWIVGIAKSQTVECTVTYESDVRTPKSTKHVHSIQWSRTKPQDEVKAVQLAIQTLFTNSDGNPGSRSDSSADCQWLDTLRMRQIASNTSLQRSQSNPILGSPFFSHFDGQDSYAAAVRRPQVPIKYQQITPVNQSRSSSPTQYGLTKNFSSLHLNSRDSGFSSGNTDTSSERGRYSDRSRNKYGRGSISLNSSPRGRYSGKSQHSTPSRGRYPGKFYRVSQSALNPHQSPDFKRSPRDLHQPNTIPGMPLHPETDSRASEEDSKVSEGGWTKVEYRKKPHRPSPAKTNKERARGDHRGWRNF
Method: as §1

ROR2 = biological target: T9, ROR2 (Homo sapiens, UniProt Q01974);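 on 0.001 uM KAM: median log10 fold change of treatment over DMSO control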;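 on 0.01 uM KAM: median log10 fold change of treatment over DMSO control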;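 on 0.1 uM KAM: median log10 fold change of treatment over DMSO control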;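 on 1 uM KAM: median log10 fold change of treatment over DMSO control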;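 on 10 uM KAM: median log10 fold change of treatment over DMSO control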
T9 construct: endogenous in cells; host or cells: K562
T9 sequence (Q01974 34-943): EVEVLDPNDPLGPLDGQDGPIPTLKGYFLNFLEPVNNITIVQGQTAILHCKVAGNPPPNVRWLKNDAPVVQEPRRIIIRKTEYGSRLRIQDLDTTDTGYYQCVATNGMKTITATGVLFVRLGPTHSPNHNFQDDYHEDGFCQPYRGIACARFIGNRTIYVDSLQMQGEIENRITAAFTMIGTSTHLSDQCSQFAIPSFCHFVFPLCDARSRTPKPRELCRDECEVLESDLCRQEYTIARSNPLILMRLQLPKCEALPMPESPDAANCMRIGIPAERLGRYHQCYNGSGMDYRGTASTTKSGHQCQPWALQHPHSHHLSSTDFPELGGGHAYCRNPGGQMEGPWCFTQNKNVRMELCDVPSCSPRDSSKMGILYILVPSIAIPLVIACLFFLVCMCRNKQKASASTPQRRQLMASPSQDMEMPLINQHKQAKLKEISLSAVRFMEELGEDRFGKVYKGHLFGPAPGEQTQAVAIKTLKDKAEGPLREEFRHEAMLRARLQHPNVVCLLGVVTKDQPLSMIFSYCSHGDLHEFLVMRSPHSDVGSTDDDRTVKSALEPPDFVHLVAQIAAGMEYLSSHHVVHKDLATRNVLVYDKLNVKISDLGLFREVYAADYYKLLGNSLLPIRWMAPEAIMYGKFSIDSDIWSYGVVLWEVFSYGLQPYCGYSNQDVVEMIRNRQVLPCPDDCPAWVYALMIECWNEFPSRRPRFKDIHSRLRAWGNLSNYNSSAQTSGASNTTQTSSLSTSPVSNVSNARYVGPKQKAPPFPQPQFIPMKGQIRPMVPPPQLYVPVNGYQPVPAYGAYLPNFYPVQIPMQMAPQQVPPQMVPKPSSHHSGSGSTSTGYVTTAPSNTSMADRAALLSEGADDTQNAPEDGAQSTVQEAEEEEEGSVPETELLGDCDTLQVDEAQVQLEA
Method: as §1

STK38 = biological target: T10, STK38 (Homo sapiens, UniProt Q15208)
T10 construct: endogenous in cells; host or cells: K562
T10 sequence (Q15208 whole entry): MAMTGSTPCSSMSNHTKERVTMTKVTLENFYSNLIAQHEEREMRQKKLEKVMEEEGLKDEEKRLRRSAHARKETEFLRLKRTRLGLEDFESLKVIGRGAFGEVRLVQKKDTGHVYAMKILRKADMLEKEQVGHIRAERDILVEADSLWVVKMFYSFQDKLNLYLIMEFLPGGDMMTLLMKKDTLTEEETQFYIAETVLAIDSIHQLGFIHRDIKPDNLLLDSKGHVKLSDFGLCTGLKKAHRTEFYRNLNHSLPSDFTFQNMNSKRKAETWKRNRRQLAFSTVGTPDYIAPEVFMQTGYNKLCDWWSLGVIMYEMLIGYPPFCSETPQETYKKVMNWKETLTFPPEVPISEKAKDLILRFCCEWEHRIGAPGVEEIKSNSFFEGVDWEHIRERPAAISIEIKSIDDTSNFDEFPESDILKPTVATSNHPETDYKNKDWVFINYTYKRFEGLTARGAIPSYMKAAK
Method: as §1

[1] = KAM 0.001-10 uM, read-out: RB50 (the source's name)
[2] = read-out: RB50 (the source's name)

SMILES: N#CCc1ccc(Nc2nc(NCCCN)cc(Nc3cc(C4CC4)[nH]n3)n2)cc1 [KAM]
- IC50 (PRKDC; [1]): > 10000 nM
- 0.001 uM KAM (PRKDC; relative to 0 uM KAM = 0): -0.0162
- 0.01 uM KAM (PRKDC; relative to 0 uM KAM = 0): -0.0236
- 0.1 uM KAM (PRKDC; relative to 0 uM KAM = 0): -0.1053
- 1 uM KAM (PRKDC; relative to 0 uM KAM = 0): -0.1689
- 10 uM KAM (PRKDC; relative to 0 uM KAM = 0): -0.08641
- median Log10 fold change (TGFBR1; 0.001 uM KAM): 0.003086
- median Log10 fold change (TGFBR1; 0.01 uM KAM): -0.03819
- median Log10 fold change (TGFBR1; 0.1 uM KAM): -0.2662
- median Log10 fold change (TGFBR1; 1 uM KAM): -0.4673
- median Log10 fold change (TGFBR1; 10 uM KAM): -0.5096
- IC50 (TGFBR1; [2]): 202 nM
- median Log10 fold change (STK16; 0.001 uM KAM): -0.0101
- median Log10 fold change (STK16; 0.01 uM KAM): -0.01878
- median Log10 fold change (STK16; 0.1 uM KAM): -0.1698
- median Log10 fold change (STK16; 1 uM KAM): -0.3768
- median Log10 fold change (STK16; 10 uM KAM): -0.4318
- IC50 (STK16; [2]): 673 nM
- median Log10 fold change (BMPR1A; 0.001 uM KAM): -0.03052
- median Log10 fold change (BMPR1A; 0.01 uM KAM): -0.01848
- median Log10 fold change (BMPR1A; 0.1 uM KAM): -0.1062
- median Log10 fold change (BMPR1A; 1 uM KAM): -0.2213
- median Log10 fold change (BMPR1A; 10 uM KAM): -0.3941
- IC50 (BMPR1A; [2]): 2700 nM
- median Log10 fold change (STK17B; 0.001 uM KAM): 0.02659
- median Log10 fold change (STK17B; 0.01 uM KAM): 0.008023
- median Log10 fold change (STK17B; 0.1 uM KAM): -0.1097
- median Log10 fold change (STK17B; 1 uM KAM): -0.3588
- median Log10 fold change (STK17B; 10 uM KAM): -0.5971
- IC50 (STK17B; [2]): 799 nM
- IC50 (SMG1; [1]): > 10000 nM
- 0.001 uM KAM (SMG1; relative to 0 uM KAM = 0): -0.09325
- 0.01 uM KAM (SMG1; relative to 0 uM KAM = 0): 0.027
- 0.1 uM KAM (SMG1; relative to 0 uM KAM = 0): 0.0044
- 1 uM KAM (SMG1; relative to 0 uM KAM = 0): 0.06163
- 10 uM KAM (SMG1; relative to 0 uM KAM = 0): 0.05027
- median Log10 fold change (HIPK1; 0.001 uM KAM): 0.007007
- median Log10 fold change (HIPK1; 0.01 uM KAM): -0.007344
- median Log10 fold change (HIPK1; 0.1 uM KAM): -0.151
- median Log10 fold change (HIPK1; 1 uM KAM): -0.3582
- median Log10 fold change (HIPK1; 10 uM KAM): -0.4749
- IC50 (HIPK1; [2]): 770 nM
- median Log10 fold change (ZAK; 0.001 uM KAM): -0.0362
- median Log10 fold change (ZAK; 0.01 uM KAM): -0.03172
- median Log10 fold change (ZAK; 0.1 uM KAM): -0.2036
- median Log10 fold change (ZAK; 1 uM KAM): -0.2767
- median Log10 fold change (ZAK; 10 uM KAM): -0.5362
- IC50 (ZAK; [2]): 990 nM
- IC50 (ROR2; [1]): > 10000 nM
- 0.001 uM KAM (ROR2; relative to 0 uM KAM = 0): -0.05631
- 0.01 uM KAM (ROR2; relative to 0 uM KAM = 0): -0.02329
- 0.1 uM KAM (ROR2; relative to 0 uM KAM = 0): -0.008785
- 1 uM KAM (ROR2; relative to 0 uM KAM = 0): -0.03493
- 10 uM KAM (ROR2; relative to 0 uM KAM = 0): 0.2477
- median Log10 fold change (STK38; 0.001 uM KAM): -0.121
- median Log10 fold change (STK38; 0.01 uM KAM): -0.04373
- median Log10 fold change (STK38; 0.1 uM KAM): -0.1647
- median Log10 fold change (STK38; 1 uM KAM): -0.3238
- median Log10 fold change (STK38; 10 uM KAM): -0.6242
- IC50 (STK38; [2]): 752 nM
